Source: patent US5635527A, “Carboxylic acid compound having condensed ring, salt thereof and pharmaceutical use thereof” (The Green Cross Corporation, priority 1994, dated 1997)

Tested on: human platelets
Assay: suppressive activity on ADP aggregation of human platelets
Format: cell-based
Settings: platelet rich plasma, ADP 1-5 μM, compound added 2 minutes before ADP, read-out: Suppression of platelet aggregation (IC50)
Description: Determination of suppressive activity on ADP aggregation of human platelets
Platelet rich plasma was prepared from the blood taken from healthy humans by centrifugation in the presence of 0.38% sodium citrate, and used for the determination.
Two minutes after the test compounds shown in Table 1 were added to the above-mentioned platelet rich plasma, ADP (adenosine-5'-diphosphate) (1-5 μM) having a concentration at which primary aggregation alone is observed was added, and the suppression of ADP aggregation by the compounds was evaluated. The percent suppression was determined by varying the concentration of the compounds and the concentration of the compound at which the aggregation was suppressed by 50% (IC50) was calculated, which was taken as the activity of the compound.

Row | IC50 [nM] | Structure (SMILES)
1 | 20 | N=C(N)c1cnc2oc(C(=O)N[C@H]3CC[C@H](OCC(=O)O)CC3)cc2c1 [Compound 255, trans-[4-(5-Amidinofuro[2,3-b]pyridine-2-carbonylamino)-cyclohexyloxy]acetic acid]
2 | 10 | N=C(N)c1cnc2oc(C(=O)N[C@H]3CC[C@H](CCC(=O)O)CC3)cc2c1 [Compound 261, trans-3-[4-(5-Amidinofuro[2,3-b]pyridine-2-carbonylamino)cyclohexyl]propionic acid]
